Measurements from the NIST ThermoML archive (doi:10.1021/acs.jced.8b00509).

Test: mn = molality of the nth substance listed, in mol/kg
Settings: 100 kPa, Liquid; for viscosity: Capillary tube (Ostwald / Ubbelohde) method; for speed of sound: Frequency=3 MHz, Single path-length method; for mass density: Vibrating tube method

C[C@H](CCC(=O)[O-])[C@H]1CC[C@H]2[C@@H]3[C@H](O)C[C@@H]4C[C@H](O)CC[C@]4(C)[C@H]3C[C@H](O)[C@]12C.[Na+] [sodium cholate] + O
Settings | mass density [kg/m3] | speed of sound [m/s] | viscosity [mPa·s]
293.15 K, m1 = 0.002 | 998.46 | 1483.6 | 1.004
293.15 K, m1 = 0.004 | 998.67 | 1484.3 | 1.007
293.15 K, m1 = 0.006 | 998.88 | 1484.8 | 1.011
293.15 K, m1 = 0.008 | 999.1 | 1485.3 | 1.016
293.15 K, m1 = 0.01 | 999.32 | 1486 | 1.021
293.15 K, m1 = 0.012 | 999.53 | 1486.7 | 1.025
293.15 K, m1 = 0.014 | 999.76 | 1487.3 | 1.032
293.15 K, m1 = 0.016 | 999.98 | 1487.8 | 1.037
293.15 K, m1 = 0.018 | 1000.2 | 1488.3 | 1.041
293.15 K, m1 = 0.02 | 1000.41 | 1488.8 | 1.044
293.15 K, m1 = 0.022 | 1000.63 | 1489 | 1.048
293.15 K, m1 = 0.024 | 1000.83 | 1489.6 | 1.051
298.15 K, m1 = 0.002 | 997.29 | 1497.5 | 0.893
298.15 K, m1 = 0.004 | 997.5 | 1498 | 0.896
298.15 K, m1 = 0.006 | 997.7 | 1498.6 | 0.899
298.15 K, m1 = 0.008 | 997.91 | 1499.2 | 0.903
298.15 K, m1 = 0.01 | 998.13 | 1499.9 | 0.906
298.15 K, m1 = 0.012 | 998.34 | 1500.5 | 0.911
298.15 K, m1 = 0.014 | 998.56 | 1501 | 0.918
298.15 K, m1 = 0.016 | 998.77 | 1501.6 | 0.922
298.15 K, m1 = 0.018 | 998.97 | 1502 | 0.926
298.15 K, m1 = 0.02 | 999.19 | 1502.3 | 0.93
298.15 K, m1 = 0.022 | 999.39 | 1502.8 | 0.933
298.15 K, m1 = 0.024 | 999.6 | 1503.3 | 0.936
303.15 K, m1 = 0.002 | 995.88 | 1509.8 | 0.8
303.15 K, m1 = 0.004 | 996.08 | 1510.2 | 0.803
303.15 K, m1 = 0.006 | 996.29 | 1510.8 | 0.806
303.15 K, m1 = 0.008 | 996.49 | 1511.3 | 0.809
303.15 K, m1 = 0.01 | 996.7 | 1511.9 | 0.813
303.15 K, m1 = 0.012 | 996.91 | 1512.4 | 0.817
303.15 K, m1 = 0.014 | 997.12 | 1512.9 | 0.823
303.15 K, m1 = 0.016 | 997.34 | 1513.4 | 0.827
303.15 K, m1 = 0.018 | 997.54 | 1513.8 | 0.831
303.15 K, m1 = 0.02 | 997.74 | 1514.2 | 0.835
303.15 K, m1 = 0.022 | 997.94 | 1514.7 | 0.838
303.15 K, m1 = 0.024 | 998.14 | 1515.1 | 0.841
308.15 K, m1 = 0.002 | 994.26 | 1520.5 | 0.722
308.15 K, m1 = 0.004 | 994.46 | 1520.9 | 0.725
308.15 K, m1 = 0.006 | 994.66 | 1521.4 | 0.727
308.15 K, m1 = 0.008 | 994.87 | 1521.9 | 0.73
308.15 K, m1 = 0.01 | 995.08 | 1522.4 | 0.734
308.15 K, m1 = 0.012 | 995.29 | 1522.9 | 0.737
308.15 K, m1 = 0.014 | 995.5 | 1523.4 | 0.742
308.15 K, m1 = 0.016 | 995.7 | 1523.9 | 0.747
308.15 K, m1 = 0.018 | 995.9 | 1524.4 | 0.751
308.15 K, m1 = 0.02 | 996.1 | 1524.8 | 0.755
308.15 K, m1 = 0.022 | 996.29 | 1525.2 | 0.758
308.15 K, m1 = 0.024 | 996.49 | 1525.6 | 0.76
313.15 K, m1 = 0.002 | 992.43 | 1529.5 | 0.655
313.15 K, m1 = 0.004 | 992.63 | 1529.8 | 0.658
313.15 K, m1 = 0.006 | 992.84 | 1530.3 | 0.66
313.15 K, m1 = 0.008 | 993.04 | 1530.8 | 0.663
313.15 K, m1 = 0.01 | 993.24 | 1531.2 | 0.666
313.15 K, m1 = 0.012 | 993.45 | 1531.7 | 0.67
313.15 K, m1 = 0.014 | 993.66 | 1532.2 | 0.675
313.15 K, m1 = 0.016 | 993.85 | 1532.6 | 0.679
313.15 K, m1 = 0.018 | 994.05 | 1533.1 | 0.684
313.15 K, m1 = 0.02 | 994.24 | 1533.5 | 0.686
313.15 K, m1 = 0.022 | 994.45 | 1533.8 | 0.689
313.15 K, m1 = 0.024 | 994.64 | 1534.2 | 0.691
